Consider seven compounds from US7288544B2, “Pyrimidine compounds useful as N-type calcium channel antagonists” (Ajinomoto Co., Inc., priority 2000, dated 2007).

For one assay, the target named is T1, N-type calcium channels (Homo sapiens, UniProt Q00975).
T1 construct: Human neuroblastoma cells IMR-32 were obtained from ATCC; host or cells: IMR-32 human neuroblastoma cells, differentiated with dibutyl cAMP and 5-bromodeoxyuridine
Briefly: Antagonistic activity on N-type calcium channels (fluorescence dye method, IMR-32 cells). Format: cell-based. The following applies: for inhibition at 10 µM: 10 μM test compound, read-out: N-type inhibition (inhibition rate (%) at 10 μM); for IC50: 60 mM KCl stimulation, 1 μM Nifedipine, Table 20, read-out: N-type inhibition pIC50 (converted). Here is the method:
(Test Example) Antagonistic Activity on N-Type Calcium Channels (Fluorescence Dye Method):
Human neuroblastoma cells IMR-32 were obtained from ATCC (American Type Culture Collection). The medium used was a phenol red-free Eagle minimum essential medium containing earle's salts (GIBCO) supplemented with 2 mM of L-glutamine (GIBCO), 1 mM of sodium pyruvate (pH 6.5) (GIBCO), antibiotic/antimicotic mixture (GIBCO) and 10% fetal calf serum (Cell Culture Technologies). Three ml of 1×10^5 cells/ml IMR-32 were spread on a 35 mm diameter glass dish (Iwaki Glass Co., Ltd.) which was treated with poly-L-lysin (SIGMA) and collagen (COLLAGEN VITROGEN 100, Collagen Co.). One day after cultivation, 1 mM (final concentration) of dibutyl cAMP and 2.5 μM (final concentration) of 5-bromodeoxyuridine (SIGMA) were added. After the culture for additional 10 to 14 days, the cells were subjected to the activity determination.
The medium for IMR-32 cells thus prepared was replaced with 1 ml of Phenol Red-free Eagle minimum essential medium (GIBCO) containing 2.5 μM fura-2/AM (Dojin Kagaku, Co.) and earle's salts supplement, and the incubation was conducted at 37° C. for 30 minutes. Then the medium was replaced with a recording medium (20 mM of HEPES-KOH, 115 mM of NaCl, 5.4 mM of KCl, 0.8 mM of MgCl2, 1.8 mM of CaCl2 and 13.8 mM of D-glucose). Antagonistic activity on N-type calcium channels was determined and analyzed using a fluorescence microscope (Nikon Corporation) and an image analysis device ARGUS 50 (Hamamatsu Photonics). In particular, a recording medium (20 mM of HEPES-KOH, 115 mM of NaCl, 5.4 mM of KCl, 0.8 mM of MgCl2, 1.8 mM of CaCl2 and 13.8 mM of D-glucose) containing 1 μM of Nifedipine was given to the cells by reflux by a Y-tube method for 2 minutes. Then a stimulating agent containing 60 mM of potassium chloride was rapidly given by the Y-tube method. The calcium concentration change in the cells was examined in terms of N-type calcium channel activity. Stimulating agents containing 60 mM of potassium chloride and 0.1, 1 or 10 μM of test compound were successively and rapidly given to the same cells by the Y-tube method to determine the change in calcium concentration in the cells on this occasion. Antagonistic activity on N-type calcium channel was thus calculated from the inhibition rates.
The same procedure as that of the above-described tests of the N-type calcium channel antagonistic activity of the compounds obtained in the Examples was repeated except for the following changes: stimulating agents containing 60 mM of potassium chloride and 0.1, 1 or 10 μM of test compound were successively and rapidly given by the Y-tube method. A change in calcium concentration in the cells was determined.

The target in a further assay is T2, L-type calcium channels (Rattus norvegicus, UniProt P22002).
T2 construct: The thoracic aorta isolated from a Wistar rat was cut to obtain ring-shaped samples; from tissue; host or cells: isolated Wistar rat thoracic aorta rings, endothelium removed
In words: Antagonistic activity on L-type calcium channels (relaxation of KCl-induced contraction of isolated rat thoracic aorta). The following applies: isolated Wistar rat thoracic aorta; for L-type inhibition pIC50: Table 21. On the procedure: (Test Example) Antagonistic Activity on L-Type Calcium Channels:
The activity of the dihydropyrimidine derivatives of the present invention to inhibit L-type calcium channels was determined by the following method in which the relaxation reaction on the KCl-induced contraction of isolated rat thoracic aorta was employed.
1) Method of Preparation of Rat Thoracic Aorta:
The thoracic aorta isolated from a Wistar rat was cut to obtain ring-shaped samples having a width of about 3 mm. The endothelial cells of the samples were mechanically removed. The samples were then suspended in a strain gage in Tyrode's solution (158.3 mM of NaCl, 4.0 mM of KCl, 1.05 mM of MgCl2, 0.42 mM of NaH2PO4, 10 mM of NaHCO, 2 mM of CaCl2 and 5 mM of glucose) in which a gaseous mixture of O2 (95%) and CO2 (5%) was introduced. A static tension of 2 g was applied hereto. The tension of the blood vessel was amplified with a transducer and a tension amplifier (EF-601G; Nihon Koden Corporation) and recorded with a multi-pen recorder (Rikadenki Kogyo Co., Ltd.). The experiments were conducted at 37° C.
2) Measurment of Relaxation Response Against KCl-Induced Contraction:
After the tension had been stabilized, the solution in the sample tank was replaced with High K^+ Tyrode's solution (112.3 mM of NaCl, 50 mM of KCl, 1.05 mM of MgCl2, 0.42 mM of NaH2PO4, 10 mM of NaHCO3, 2 mM of CaCl2 and 5 mM of glucose) to conduct the contraction reaction. Thirty minutes after, the solution in the sample tank was replaced with the normal Tyrode's solution. The solution in the sample tank was again replaced with the High K^+ Tyrode's solution and the contraction reaction was observed. After attaining the maximum contraction reaction, the test compound was cumulatively added at intervals of […] to attain concentrations of 10^−9, 10^−8, 10^−7 and 10^−6 M. The inhibitory rate of the test compound on the maximum contraction reaction was employed as the index of the inhibition activity on L-type calcium channels.

The test system of a further assay is SD rats. Briefly: Analgesic action in the formalin test. Particulars: 3 mg/kg p.o. 3 hours before formalin injection, counted for 60 minutes, average±standard error, control group 116 ± 8. Format: in vivo, rat. On the procedure:
(Test Example) Determination of Analgesic Action (Analgesic Action in the Formalin Test) 1) Preparation of Solution of a Test Compound and its Administration
The compound was weighed and ground in a mortar. While grinding the powder, 0.5% tragacanth solution was added thereto so that a suspension was prepared to have a concentration of 0.6 mg/ml.
Three hours before the formalin injection, the compound suspension was orally administered to SD rats at a volume of 5 ml/kg (dosage; 3 mg/kg, p.o.). In the control group, 0.5% tragacanth solution was orally administered to SD rats at a volume of 5 ml/kg 3 hours before formalin injection.
2) Determination of Analgesic Action in the Formalin Test
The SD rats to which the compound was administered were introduced to a capsule. They were settled under halothane (2 to 4% in 3 L/min of oxygen gas flow rate) and 100 μl of 5% formalin solution was injected subcutaneously to their dorsal surface of left legs. After injection, determination was started when the rats came out from the anesthetic state (based on recovery of righting reflex). The number of flinching under the influence of formalin injection was counted for 60 minutes (Reference: J. Neurosci. 14: 4882-4890 (1994)). The results are shown as “average±standard error” in Table 22.

Where [1] appears, read: Table 20, read-out: L-type inhibition pIC50 (converted).
[2] abbreviates: Table 21, read-out: L-type inhibition pIC50 (converted).

Read-outs that look alike come from different tables or passages of the source.

T1 sequence (Q00975 whole entry): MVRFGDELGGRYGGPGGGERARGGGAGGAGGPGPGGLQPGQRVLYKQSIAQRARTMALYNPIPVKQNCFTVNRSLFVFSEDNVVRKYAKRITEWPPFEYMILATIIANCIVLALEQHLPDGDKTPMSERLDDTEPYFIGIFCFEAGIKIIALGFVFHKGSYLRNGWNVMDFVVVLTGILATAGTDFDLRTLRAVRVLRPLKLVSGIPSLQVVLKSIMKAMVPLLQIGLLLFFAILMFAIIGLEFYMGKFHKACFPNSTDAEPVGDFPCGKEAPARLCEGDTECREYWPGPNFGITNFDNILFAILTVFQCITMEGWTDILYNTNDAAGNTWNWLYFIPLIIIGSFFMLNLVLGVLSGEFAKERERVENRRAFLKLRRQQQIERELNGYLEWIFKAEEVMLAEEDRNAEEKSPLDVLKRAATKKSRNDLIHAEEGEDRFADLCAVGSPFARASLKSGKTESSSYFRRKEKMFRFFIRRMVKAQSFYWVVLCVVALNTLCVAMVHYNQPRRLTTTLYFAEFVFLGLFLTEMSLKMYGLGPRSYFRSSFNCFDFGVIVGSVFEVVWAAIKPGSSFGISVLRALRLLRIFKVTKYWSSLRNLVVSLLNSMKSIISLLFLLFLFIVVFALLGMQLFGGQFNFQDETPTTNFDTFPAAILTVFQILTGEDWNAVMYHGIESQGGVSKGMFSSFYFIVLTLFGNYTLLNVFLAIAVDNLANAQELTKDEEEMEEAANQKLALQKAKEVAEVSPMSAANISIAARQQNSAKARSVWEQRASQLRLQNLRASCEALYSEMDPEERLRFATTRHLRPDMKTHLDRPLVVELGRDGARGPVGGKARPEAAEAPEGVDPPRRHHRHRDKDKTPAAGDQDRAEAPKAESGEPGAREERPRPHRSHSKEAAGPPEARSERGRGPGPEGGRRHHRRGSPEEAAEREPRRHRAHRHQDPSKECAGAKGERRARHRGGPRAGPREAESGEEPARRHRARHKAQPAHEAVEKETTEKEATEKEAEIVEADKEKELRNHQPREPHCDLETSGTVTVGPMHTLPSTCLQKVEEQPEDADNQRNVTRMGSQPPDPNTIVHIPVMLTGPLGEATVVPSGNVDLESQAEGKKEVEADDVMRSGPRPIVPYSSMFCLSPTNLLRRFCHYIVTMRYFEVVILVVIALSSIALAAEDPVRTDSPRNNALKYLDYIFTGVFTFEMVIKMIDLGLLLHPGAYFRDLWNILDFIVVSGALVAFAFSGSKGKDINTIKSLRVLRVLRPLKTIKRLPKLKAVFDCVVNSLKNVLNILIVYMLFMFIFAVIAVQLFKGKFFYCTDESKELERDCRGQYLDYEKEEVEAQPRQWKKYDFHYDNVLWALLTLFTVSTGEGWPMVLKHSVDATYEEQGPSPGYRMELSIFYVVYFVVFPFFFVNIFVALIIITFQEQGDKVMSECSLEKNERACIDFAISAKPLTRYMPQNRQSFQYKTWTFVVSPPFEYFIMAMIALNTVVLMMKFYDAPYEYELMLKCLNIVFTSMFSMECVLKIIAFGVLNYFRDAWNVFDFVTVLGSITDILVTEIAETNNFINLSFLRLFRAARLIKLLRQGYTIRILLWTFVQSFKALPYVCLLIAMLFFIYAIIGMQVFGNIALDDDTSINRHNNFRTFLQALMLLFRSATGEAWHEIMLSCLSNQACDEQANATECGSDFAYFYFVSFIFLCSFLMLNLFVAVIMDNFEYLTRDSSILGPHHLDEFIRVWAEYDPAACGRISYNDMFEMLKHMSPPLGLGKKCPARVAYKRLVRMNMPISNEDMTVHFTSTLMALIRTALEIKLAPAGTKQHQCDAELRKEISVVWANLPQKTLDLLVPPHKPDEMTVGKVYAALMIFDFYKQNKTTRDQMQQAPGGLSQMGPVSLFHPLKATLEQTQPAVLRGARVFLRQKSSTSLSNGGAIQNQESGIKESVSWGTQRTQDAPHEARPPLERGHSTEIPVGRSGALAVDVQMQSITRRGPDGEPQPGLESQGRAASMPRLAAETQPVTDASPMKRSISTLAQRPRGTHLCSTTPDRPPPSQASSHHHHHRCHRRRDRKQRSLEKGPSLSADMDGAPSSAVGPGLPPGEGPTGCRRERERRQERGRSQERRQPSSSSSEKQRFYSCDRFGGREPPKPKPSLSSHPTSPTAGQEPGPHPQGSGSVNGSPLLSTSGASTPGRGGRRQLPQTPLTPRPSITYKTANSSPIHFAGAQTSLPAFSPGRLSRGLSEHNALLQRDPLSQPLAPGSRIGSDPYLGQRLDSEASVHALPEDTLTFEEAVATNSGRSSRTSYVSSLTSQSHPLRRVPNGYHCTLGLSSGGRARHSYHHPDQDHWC
T1 sequence (Q02641 whole entry partner): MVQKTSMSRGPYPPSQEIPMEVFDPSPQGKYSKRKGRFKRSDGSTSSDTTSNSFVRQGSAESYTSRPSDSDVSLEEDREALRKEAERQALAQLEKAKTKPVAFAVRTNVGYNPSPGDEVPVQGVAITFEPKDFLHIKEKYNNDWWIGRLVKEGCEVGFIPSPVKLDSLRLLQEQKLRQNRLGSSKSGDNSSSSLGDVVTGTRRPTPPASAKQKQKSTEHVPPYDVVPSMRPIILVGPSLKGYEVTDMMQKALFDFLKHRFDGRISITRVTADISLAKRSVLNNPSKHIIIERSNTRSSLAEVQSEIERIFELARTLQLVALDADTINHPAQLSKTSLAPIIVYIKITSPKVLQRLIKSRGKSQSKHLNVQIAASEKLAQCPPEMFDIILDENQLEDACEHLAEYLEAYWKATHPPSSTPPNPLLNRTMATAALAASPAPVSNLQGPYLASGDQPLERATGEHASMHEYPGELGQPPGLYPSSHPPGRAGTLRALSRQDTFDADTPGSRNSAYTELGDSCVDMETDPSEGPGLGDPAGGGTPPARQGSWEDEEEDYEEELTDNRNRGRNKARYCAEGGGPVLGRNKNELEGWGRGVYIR
T1 sequence (P54289 25-956 partner limits assumed): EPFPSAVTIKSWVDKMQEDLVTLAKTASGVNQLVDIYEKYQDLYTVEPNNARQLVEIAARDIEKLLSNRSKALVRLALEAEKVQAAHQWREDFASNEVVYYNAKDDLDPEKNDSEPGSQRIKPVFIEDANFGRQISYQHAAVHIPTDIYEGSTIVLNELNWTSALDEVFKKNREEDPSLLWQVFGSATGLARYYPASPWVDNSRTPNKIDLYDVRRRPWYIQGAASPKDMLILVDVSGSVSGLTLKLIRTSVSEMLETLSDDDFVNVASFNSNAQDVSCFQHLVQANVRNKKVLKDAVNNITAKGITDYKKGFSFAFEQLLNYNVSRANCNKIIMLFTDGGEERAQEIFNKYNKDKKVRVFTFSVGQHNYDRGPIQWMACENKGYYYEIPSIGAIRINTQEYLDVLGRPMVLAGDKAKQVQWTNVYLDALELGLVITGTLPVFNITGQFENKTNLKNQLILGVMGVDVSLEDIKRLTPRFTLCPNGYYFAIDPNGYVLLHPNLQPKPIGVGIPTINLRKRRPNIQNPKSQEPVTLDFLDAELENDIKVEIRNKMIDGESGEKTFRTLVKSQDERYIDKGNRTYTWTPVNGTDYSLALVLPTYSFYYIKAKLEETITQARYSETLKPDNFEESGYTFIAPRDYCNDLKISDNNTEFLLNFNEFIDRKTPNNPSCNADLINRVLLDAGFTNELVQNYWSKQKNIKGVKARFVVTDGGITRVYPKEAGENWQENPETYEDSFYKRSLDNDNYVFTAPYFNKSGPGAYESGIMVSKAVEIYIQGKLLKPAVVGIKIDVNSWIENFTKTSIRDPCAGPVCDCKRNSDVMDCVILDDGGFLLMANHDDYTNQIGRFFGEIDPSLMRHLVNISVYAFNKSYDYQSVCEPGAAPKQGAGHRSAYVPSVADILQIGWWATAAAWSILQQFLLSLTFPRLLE
T1 sequence (P54289 957-1103 partner limits assumed): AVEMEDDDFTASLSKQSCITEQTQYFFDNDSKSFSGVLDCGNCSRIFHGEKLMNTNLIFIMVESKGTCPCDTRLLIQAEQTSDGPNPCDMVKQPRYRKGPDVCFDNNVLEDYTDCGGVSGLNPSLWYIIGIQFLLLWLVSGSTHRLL

One may read the inhibition as how much of the control response was suppressed. For `Cc1nc(C)c(C(=O)N2CCNCC2)c(-c2cccc(Cl)c2)c1C(=O)OCCC(c1ccccc1)c1ccccc1` [Example 122, 4-(3-chlorophenyl)-2,6-dimethyl-5-(piperazine-1-carbonyl)nicotinic acid (3,3-diphenylpropyl) ester], on N-type calcium channels, the inhibition at 10 µM came out at 56% and the IC50 was 1580 nM. On L-type calcium channels (setting [1]), the IC50 is 1000 nM. Also, the “L-type inhibition pIC50” value at L-type calcium channels came out at 6.0. Besides, the “Flinching (number)” value in the assay with SD rats turned out to be 61 ± 16 number.
In the case of `CCc1nc(C)c(C(=O)NCCCc2ccccc2)c(-c2cc(Cl)cc(Cl)c2)n1` [Example 103, 2-ethyl-4-(3,5-dichlorophenyl)-6-methyl-N-(3-phenylpropyl)-5-pyrimidinecarboxamide], the inhibition at 10 µM at N-type calcium channels was 74%. Further, the IC50 at L-type calcium channels (setting [2]) was 3980 nM.
Taken in the same sequence, the figures for `CSc1nc(C)c(C(=O)NCCCc2ccccc2)c(-c2c(Cl)cccc2Cl)n1` [Example 110, 4-(2,6-dichlorophenyl)-6-methyl-2-(methylthio)-N-(3-phenylpropyl)-5-pyrimidinecarboxamide] were 77% and 2510 nM.
Take `CSc1nc(C)c(C(=O)NCCCc2ccccc2)c(-c2ccc(C)cc2C)n1` [Example 93, 4-(2,4-dimethylphenyl)-6-methyl-2-(methylthio)-N-(3-phenylpropyl)-5-pyrimidinecarboxamide]: the inhibition at 10 µM on N-type calcium channels came out at 63%. Further, the IC50 on L-type calcium channels (setting [2]) is 5010 nM. Besides, in the assay on SD rats, the “Flinching (number)” value turned out to be 39 ± 11 number.
`CSc1nc(C)c(C(=O)NCCCc2ccccc2)c(-c2cccc(Cl)c2)n1` [Example 16, 4-(3-chlorophenyl)-6-methyl-2-(methylthio)-N-(3-phenylpropyl)-5-pyrimidinecarboxamide]: at N-type calcium channels, the inhibition at 10 µM turned out to be 58% and the IC50 is 2000 nM. Also, the IC50 at L-type calcium channels (setting [1]) was 3160 nM. Moreover, at L-type calcium channels, the “L-type inhibition pIC50” value came to 5.5.
As for `CSc1nc(C)c(C(=O)NC/C=C/c2ccccc2)c(-c2cccc(Cl)c2)n1` [Example 1, 4-(3-chlorophenyl)-6-methyl-2-(methylthio)-N-(3-phenyl-2-propen-1-yl)-5-pyrimidinecarboxamide], on N-type calcium channels, the inhibition at 10 µM turned out to be 52% and the IC50 is 1580 nM. In addition, the IC50 on L-type calcium channels (setting [1]) was 2510 nM. Besides, the “L-type inhibition pIC50” value on L-type calcium channels is listed as 5.6.
Consider `Cc1nc(C)c(C(=O)N2CCN(C)CC2)c(-c2cccc(Cl)c2)c1C(=O)OCCC(c1ccccc1)c1ccccc1` [Example 125, 4-(3-chlorophenyl)-2,6-dimethyl-5-(4-methylpiperazine-1-carbonyl)nicotinic acid (3,3-diphenylpropyl) ester], for which, on N-type calcium channels, the inhibition at 10 µM worked out at 70%. Moreover, the IC50 at L-type calcium channels (setting [2]) is 1260 nM. The “Flinching (number)” value in the assay on SD rats amounted to 62 ± 25 number.
